Our source for the IC50 values is patent publication US20240140931A1, “TRICYCLIC COMPOUNDS AND USES THEREOF” (HUTCHMED LIMITED, priority 2021, published 2024).

One experiment deals with Miapaca2 3D spheroids. Description: Assay of cell proliferation on Miapaca2 3D spheroids. Format: cell-based. The conditions noted are these: Homo sapiens, MIA PaCa-2, 120 h, CellTiter-Glo 3D, 5 days treatment. As for the experimental part: Example 4 Assay of Cell Proliferation on Miapaca2 3D Spheroids
1. Reagents and Materials • CellTiter-Glo® 3D Cell Viability Assay Kit: Promega, Cat #G9683; • CellCarrier Spheroid ULA 96-well plate: Corning, Cat #4515; • Instrument: Envision, Perkinelmer; • Cell line: Miapaca2, ATCC, Cat #CRL-1420.
2. Preparation of Reaction Solutions • The test compound was dissolved in DMSO and diluted with DMSO to 3000.0 μM, and the compound was further 3-fold diluted with DMSO to: 1000.0, 333.3, 111.1, 37.0, 12.3, 4.1, and 1.4 μM. Then 2 μL of the compound at different dilution concentrations was added to 198 μL of a 1640 medium to prepare a 10× test compound, wherein DMSO was at the concentration of 1% (DMSO was at the final concentration of 0.1%).
3. Experimental Methods • Day0: Digest cells and count cell numbers. Miapaca2 cells were inoculated into a spheroid ULA 96-well plate at a density of 300 cells/well at 100 μL/well and cultured in a cell incubator at 5% CO2 and 37° C. • Day2: The cell spheroids formed at day2. Add 10 μL of 10× test compounds to the 96-well plate. To the cell positive control well was added 10 μL of 1% DMSO 1640 medium. Incubate the cell spheroids in a cell incubator at 5% CO2 and 37° C. for additional 5 days. • Cell viability assay: Add 50 μL of CellTiter-Glo reagent to each well, place the plate in a microplate shaker, and lysis under shaking at 900 rpm at room temperature for 5 minutes. Then incubate the plate at room temperature in the dark for 30 minutes. • The luminescene of each well was detected on Envision2104.
Cell Survial %=(Lum(d7 treatment)−Lum(d2 cell))/(Lum(d7 cell)−Lum(d2 cell))×100
Wherein: • Lum(d7 treatment) refers to the luminescene of the test compound treated cells on day7; • Lum(d2 cell) refers to the luminescene of the 0.1% DMSO treated Miapaca2 cells on day2; • Lum(d7 cell) refers to the luminescene of the 0.1% DMSO treated Miapaca2 cells on day7. • IC50 values were calculated following formula 205: y=A+((B−A)/(1+((C/X)^D))), by using the XL-Fit 5.0 software.
Background: ATP-based viability assays read luminescence as a measure of living cells.

Experiment [1] addresses Human full-length SHP2 recombinant protein (Homo sapiens (Human), UniProt Q06124). Nature of the experiment: Assay of full-length SHP2 phosphatase activity. It counts as biochemical. The conditions noted are these: DiFMUP substrate, with activating peptide. The gist of the method:
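Readout: DiFMUP hydrolysis fluorescence (355/460 nm) after 60 min at 25 °C, following 30 min RT preincubation of compound with peptide-activated full-length human SHP2. Controls were 1% DMSO with or without enzyme; IC50 by four-parameter logistic fit.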

Experiment [2] concerns pERK1/2 (Thr202/Tyr204) in Miapaca2 cells. Description: Assay of intracellular pERK1/2 (Thr202/Tyr204) phosphorylation. Format: cell-based. The conditions noted are these: pERK1/2 (Thr202/Tyr204) HTRF. The gist of the method:
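HTRF read-out (665/615 nm) of phospho-ERK1/2 Thr202/Tyr204 in lysates from Miapaca2 cells exposed for 2 h to 3-fold compound dilutions at 0.5% final DMSO. Controls: lysis buffer without cells and DMSO-treated cells; IC50 from four-parameter logistic fit.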
In general terms: In TR-FRET formats the signal depends on donor and acceptor labels being close together.

Sequence of Human full-length SHP2 recombinant protein (Q06124 whole entry): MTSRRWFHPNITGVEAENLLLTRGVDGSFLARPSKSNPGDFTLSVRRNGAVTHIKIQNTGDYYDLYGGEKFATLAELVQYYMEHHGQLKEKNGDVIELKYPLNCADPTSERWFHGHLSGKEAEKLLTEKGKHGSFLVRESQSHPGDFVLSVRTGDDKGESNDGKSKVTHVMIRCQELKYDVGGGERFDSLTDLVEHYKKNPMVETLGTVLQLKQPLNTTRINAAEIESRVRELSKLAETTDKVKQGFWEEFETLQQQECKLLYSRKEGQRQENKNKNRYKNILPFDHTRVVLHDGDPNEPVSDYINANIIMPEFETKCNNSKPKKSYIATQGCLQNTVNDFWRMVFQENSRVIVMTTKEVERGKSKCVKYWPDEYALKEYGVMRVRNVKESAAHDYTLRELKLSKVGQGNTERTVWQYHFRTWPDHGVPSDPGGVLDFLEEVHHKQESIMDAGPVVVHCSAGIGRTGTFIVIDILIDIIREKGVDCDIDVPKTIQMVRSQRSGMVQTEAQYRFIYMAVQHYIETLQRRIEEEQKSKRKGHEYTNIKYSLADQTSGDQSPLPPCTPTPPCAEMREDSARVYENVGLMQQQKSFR

By IC50 is commonly meant the point on the concentration scale where inhibition reaches its midpoint. With `CNC(=O)C#Cc1ccc2c(c1)[C@@H](N)C1(CCN(c3nc(N)c(Sc4ccnc(N)n4)nc3C)CC1)C2` [Compound 216], the IC50 in the experiment with Miapaca2 3D spheroids worked out at 28 nM; in experiment [1] it was 1 nM; in experiment [2] (Homo sapiens, MIA PaCa-2, 2 h), 45 nM.
On the same counts, the results for `C#Cc1ccc2c(c1)[C@@H](N)C1(CCN(c3ncc(Sc4ccnc(N)c4Cl)c(=O)n3C)CC1)C2` [Compound 299, (S)-5-((2-amino-3-chloropyridin-4-yl)thio)-2-(1-amino-6-ethynyl-1,3-dihydrospiro[indene-2,4′-piperidin]-1′-yl)-3-methylpyrimidin-4(3H)-one] are 1 nM, 1 nM and 2 nM.
As to `CNC(=O)C#Cc1ccc2c(c1)[C@@H](N)C1(CCN(c3ncc(Sc4ccnc(N)n4)nc3C)CC1)C2` [Compound 233], the IC50 in the experiment on Miapaca2 3D spheroids was found to be 3.2 nM; in experiment [1] it was 1.1 nM; in experiment [2] (Homo sapiens, MIA PaCa-2, 2 h), 14 nM.
As to `C#Cc1ccc2c(c1)[C@@H](N)C1(CCN(c3nc(N)c(Sc4ccnc(N)c4Cl)c(=O)n3C)CC1)C2` [Compound 282], the IC50 in the experiment on Miapaca2 3D spheroids turned out to be 2 nM; in experiment [1], 1 nM; in experiment [2] (Homo sapiens, MIA PaCa-2, 2 h), 3 nM.
With `COCC#Cc1cc(F)c2c(c1)[C@@H](N)C1(CCN(c3nc(C)n(-c4cccc(Cl)c4Cl)c(=O)c3C)CC1)C2` [Compound 160], the IC50 in the experiment on Miapaca2 3D spheroids is 41 nM; in experiment [1] it was 13 nM; in experiment [2] (Homo sapiens, MIA PaCa-2, 2 h), 56 nM.
`CNC(=O)C#Cc1ccc2c(c1)[C@@H](N)C1(CCN(c3nc(N)c(Sc4ccnc(N)c4Cl)nc3Cl)CC1)C2` [Compound 222, (S)-3-(1-amino-1′-(6-amino-5-((2-amino-3-chloropyridin-4-yl)thio)-3-chloropyrazin-2-yl)-1,3-dihydrospiro[indene-2,4′-piperidin]-6-yl)-N-methylpropiolamide]: the IC50 in the experiment on Miapaca2 3D spheroids worked out at 15 nM; in experiment [1] it was 4 nM; in experiment [2] (Homo sapiens, MIA PaCa-2, 2 h), 6 nM.
In the case of `COCC#Cc1ccc2c(c1)[C@@H](N)C1(CCN(c3ncc(Sc4ccnc(N)c4Cl)c4nncn34)CC1)C2` [Compound 147], the 50% inhibitory concentration (IC50) stood at 48 nM with Miapaca2 3D spheroids; 3 nM in experiment [1]; 10 nM in experiment [2] (Homo sapiens, MIA PaCa-2, 2 h).
Consider `CC#Cc1ccc2c(c1)[C@@H](N)C1(CCN(c3nc(C)n(-c4cccc(Cl)c4Cl)c(=O)c3F)CC1)C2` [Compound 170], for which the IC50 with Miapaca2 3D spheroids is 162 nM; in experiment [1], 9 nM; in experiment [2] (Homo sapiens, MIA PaCa-2, 2 h) it was 143 nM.
Consider `CNC(=O)C#Cc1ccc2c(c1)[C@@H](N)C1(CCN(c3nc(C)c(Sc4ccnc(N)c4Cl)nc3CO)CC1)C2` [Compound 199], for which the IC50 in the experiment on Miapaca2 3D spheroids stood at 12 nM; in experiment [1], 1 nM; in experiment [2] (Homo sapiens, MIA PaCa-2, 2 h), 5 nM.
`CNC(=O)C#Cc1ccc2c(c1)[C@@H](N)C1(CCN(c3nc(N)c(Sc4ccnc(C)c4Cl)nc3C)CC1)C2` [Compound 189]: the IC50 in the experiment on Miapaca2 3D spheroids was determined as 15 nM; in experiment [1] it was 1 nM; in experiment [2] (Homo sapiens, MIA PaCa-2, 2 h), 7 nM.
Regarding `C#Cc1cc(F)c2c(c1)[C@@H](N)C1(CCN(c3cc(=O)n(-c4cccc(Cl)c4Cl)c(C)n3)CC1)C2` [Compound 135], the IC50 was found to be 95 nM in the experiment on Miapaca2 3D spheroids; 5 nM in experiment [1]; 56 nM in experiment [2] (Homo sapiens, MIA PaCa-2, 2 h).
`C#Cc1ccc2c(c1)[C@@H](N)C1(CCN(c3nc(N)c(Sc4ccnc(N)c4Cl)nc3C)CC1)C2` [Compound 241]: the IC50 in the experiment on Miapaca2 3D spheroids turned out to be 3.8 nM; in experiment [1], 1.2 nM; in experiment [2] (Homo sapiens, MIA PaCa-2, 2 h), 10 nM.
With `Nc1nccc(Sc2cnc(N3CCC4(CC3)Cc3ccc(C#CC(=O)O)cc3[C@H]4N)cn2)c1Cl` [Compound 279, (S)-3-(1-amino-1′-(5-((2-amino-3-chloropyridin-4-yl)thio)pyrazin-2-yl)-1,3-dihydrospiro[indene-2,4′-piperidin]-6-yl)propiolic acid], the IC50 in the experiment on Miapaca2 3D spheroids turned out to be 42 nM; in experiment [1], 0.4 nM; in experiment [2] (Homo sapiens, MIA PaCa-2, 2 h), 183 nM.
On to `CNC(=O)C#Cc1ccc2c(c1)[C@@H](N)C1(CCN(c3cc(=O)n(-c4ccc(F)c(F)c4Cl)c(C)n3)CC1)C2` [Compound 202], for which the IC50 is 46 nM with Miapaca2 3D spheroids, 1 nM in experiment [1] and 40 nM in experiment [2] (2 hours).
`CNC(=O)C#Cc1ccc2c(c1)[C@@H](N)C1(CCN(c3cnc(Sc4ccnc(N)c4Cl)cn3)CC1)O2` [Compound 292]: the IC50 came out at 1 nM in the experiment on Miapaca2 3D spheroids; 0.9 nM in experiment [1]; 6 nM in experiment [2] (Homo sapiens, MIA PaCa-2, 2 h).
Turning to `CCNC(=O)C#Cc1ccc2c(c1)[C@@H](N)C1(CCN(c3cnc(Sc4cc(F)nc(N)c4Cl)cn3)CC1)C2` [Compound 273], the IC50 in the experiment on Miapaca2 3D spheroids worked out at 2 nM; in experiment [1], 1 nM; in experiment [2] (Homo sapiens, MIA PaCa-2, 2 h), 5 nM.
`CNC(=O)C#Cc1ccc2c(c1)[C@@H](N)C1(CCN(c3cnc(Sc4cccnc4C(F)(F)F)cn3)CC1)C2` [Compound 242]: the IC50 in the experiment on Miapaca2 3D spheroids stood at 2 nM; in experiment [1] it was 0.7 nM; in experiment [2] (Homo sapiens, MIA PaCa-2, 2 h), 13 nM.
On to `CC#Cc1ccc2c(c1)[C@@H](N)C1(CCN(c3nc(N)c(-c4cn(C)c5ncccc45)c(=O)n3C)CC1)C2` [Compound 286], for which the IC50 with Miapaca2 3D spheroids came to 9 nM; in experiment [1], 2 nM; in experiment [2] (Homo sapiens, MIA PaCa-2, 2 h), 10 nM.
In the case of `C#Cc1ccc2c(c1)[C@@H](N)C1(CCN(c3cnc(Sc4ccnc(N)c4Cl)cn3)CC1)C2` [Compound 252], the IC50 in the experiment on Miapaca2 3D spheroids amounted to 1 nM; in experiment [1], 1 nM; in experiment [2] (Homo sapiens, MIA PaCa-2, 2 h), 3 nM.
In the case of `CNC(=O)C#Cc1ccc2c(c1)[C@@H](N)C1(CCN(c3nc(N)c(Sc4ccnc(N)c4Cl)nc3C)CC1)C2` [Compound 187], the IC50 with Miapaca2 3D spheroids came to 3 nM; in experiment [1] it was 1 nM; in experiment [2] (Homo sapiens, MIA PaCa-2, 2 h), 3 nM.
As for `C#Cc1cc(F)c2c(c1)[C@@H](N)C1(CCN(c3ncc(Sc4ccnc(N)c4Cl)n4nccc34)CC1)C2` [Compound 176], the IC50 was found to be 97 nM in the experiment on Miapaca2 3D spheroids; 38 nM in experiment [1]; 41 nM in experiment [2] (Homo sapiens, MIA PaCa-2, 2 h).
Consider `CC#Cc1ccc2c(c1)[C@@H](N)C1(CCN(c3cc(=O)n(-c4ccc(F)c(F)c4Cl)c(C)n3)CC1)C2` (atropisomer, axis not shown) [Compound 217], for which the values for the 50% inhibitory concentration (IC50) (with Miapaca2 3D spheroids; in experiment [1]; in experiment [2] (2 hours)) were 62 nM, 1 nM and 49 nM, respectively.
Consider `CNC(=O)C#Cc1ccc2c(c1)[C@@H](N)C1(CCN(c3ncc(Sc4ccnc(N)c4Cl)nn3)CC1)C2` [Compound 250], for which the IC50 with Miapaca2 3D spheroids was 14 nM; in experiment [1], 1 nM; in experiment [2] (Homo sapiens, MIA PaCa-2, 2 h), 72 nM.
On the same counts, the results for `COCCNC(=O)C#Cc1ccc2c(c1)[C@@H](N)C1(CCN(c3cnc(Sc4ccnc(N)c4Cl)cn3)CC1)C2` [Compound 297] are 0.3 nM, 0.3 nM and 1 nM.
With `COCC#Cc1ccc2c(c1)[C@@H](N)C1(CCN(c3cc(=O)n(-c4ccc(F)c(OC)c4Cl)c(C)n3)CC1)C2` (atropisomer, axis not shown) [Compound 163], the IC50 in the experiment on Miapaca2 3D spheroids was found to be 20 nM; in experiment [1] it was 1 nM; in experiment [2] (2 hours) it was 14 nM.
As for `Cc1nc(N2CCC3(CC2)Cc2ccc(C#CC(N)=O)cc2[C@H]3N)cnc1Sc1cc(N)nc(Cl)c1Cl` [Compound 280], the IC50 with Miapaca2 3D spheroids was 35 nM; in experiment [1], 11 nM; in experiment [2] (Homo sapiens, MIA PaCa-2, 2 h) it was 35 nM.
In the case of `CCCNC(=O)C#Cc1ccc2c(c1)[C@@H](N)C1(CCN(c3nc(N)c(Sc4ccnc(N)c4Cl)nc3C)CC1)C2` [Compound 237], the IC50 with Miapaca2 3D spheroids was determined as 2.4 nM; in experiment [1], 3.9 nM; in experiment [2] (Homo sapiens, MIA PaCa-2, 2 h) it was 4 nM.
As for `C#Cc1ccc2c(c1)[C@@H](N)C1(CCN(c3ncc(Sc4ccnc(C)n4)n4nccc34)CC1)C2` [Compound 178], the IC50 stood at 41 nM in the experiment with Miapaca2 3D spheroids; 2 nM in experiment [1]; 48 nM in experiment [2] (Homo sapiens, MIA PaCa-2, 2 h).
Turning to `COc1nccc(Sc2nc(C)c(N3CCC4(CC3)Cc3ccc(C#CC(=O)N(C)C)cc3[C@H]4N)nc2N)c1Cl` [Compound 204], the IC50 was 121 nM in the experiment on Miapaca2 3D spheroids; 6 nM in experiment [1]; 54 nM in experiment [2] (Homo sapiens, MIA PaCa-2, 2 h).
